Test results taken from PMC3124400 (International Journal of Nanomedicine, 2011).

Columns and labels:
[1] = cited from earlier work
[2] = In vitro release by dynamic dialysis method; type: physicochemical; conditions: dialysis bag control

| Time for complete diffusion of CyA in solution across the dialysis bag [2] [h] | Molecule | Increase in oral bioavailability ([1]; fenofibrate in fast-dissolving solid dispersion formulation) [fold] | Enhancement of oral bioavailability ([1]; fenofibrate in liposomes containing sodium deoxycholate) [fold] |
| --- | --- | --- | --- |
|  | CC(C)OC(=O)C(C)(C)Oc1ccc(C(=O)c2ccc(Cl)cc2)cc1 [fenofibrate] | 4.4 | 5.13 |
| ≤ 1 | Cyclosporine A [CyA] |  |  |
